Tests used:
Assay in all cases: cells
D-336MG = type: functional, cell-based, Homo sapiens; settings: Homo sapiens, D-336MG
Description: SANGER: Inhibition of human D-336MG cell growth in a cell viability assay.

DEL = type: functional, cell-based; settings: Homo sapiens;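 further: growth inhibition of the human DEL cell line, read out with a cell viability assay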
Description: SANGER: Inhibition of human DEL cell growth in a cell viability assay.

EW-24 = type: functional, cell-based; settings: Homo sapiens;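 further: human EW-24 cancer cell line, growth inhibition read out via a cell viability assay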
Description: SANGER: Inhibition of human EW-24 cell growth in a cell viability assay.

EW-3 = type: functional, cell-based; settings: Homo sapiens;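 further: cell viability assay read-out, IC50 reflects inhibition of growth of the EW-3 cells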
Description: SANGER: Inhibition of human EW-3 cell growth in a cell viability assay.

GR-ST = type: functional, cell-based; settings: Homo sapiens
Description: SANGER: Inhibition of human GR-ST cell growth in a cell viability assay.

HC-1 = type: functional, cell-based; settings: Homo sapiens;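 further: growth inhibition of HC-1 cells measured by a cell viability assay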
Description: SANGER: Inhibition of human HC-1 cell growth in a cell viability assay.

HL-60 = type: functional, cell-based; settings: Homo sapiens;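 further: growth inhibition of human HL-60 cells, read out with a cell viability assay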
Description: SANGER: Inhibition of human HL-60 cell growth in a cell viability assay.

IST-SL1 = type: functional, cell-based, Homo sapiens; settings: Homo sapiens, IST-SL1;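 further: growth inhibition of human IST-SL1 cells, read out with a cell viability assay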
Description: SANGER: Inhibition of human IST-SL1 cell growth in a cell viability assay.

JVM-3 = type: functional, cell-based; settings: Homo sapiens;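 further: growth inhibition of human JVM-3 cells, read out with a cell viability assay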
Description: SANGER: Inhibition of human JVM-3 cell growth in a cell viability assay.

LB2241-RCC = type: functional, cell-based, Homo sapiens; settings: Homo sapiens, LB2241-RCC;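 further: cell viability assay measuring how strongly the cultured human renal carcinoma line is prevented from growing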
Description: SANGER: Inhibition of human LB2241-RCC cell growth in a cell viability assay.

LB373-MEL-D = type: functional, cell-based, Homo sapiens; settings: Homo sapiens, LB373-MEL-D;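 further: growth inhibition of the cell line, read out in a cell viability assay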
Description: SANGER: Inhibition of human LB373-MEL-D cell growth in a cell viability assay.

LB831-BLC = type: functional, cell-based, Homo sapiens; settings: Homo sapiens, LB831-BLC;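 further: growth inhibition of LB831-BLC cells, read out with a cell viability assay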
Description: SANGER: Inhibition of human LB831-BLC cell growth in a cell viability assay.

LS-513 = type: functional, cell-based, Homo sapiens; settings: Homo sapiens, LS-513
Description: SANGER: Inhibition of human LS-513 cell growth in a cell viability assay.

MC116 = type: functional, cell-based; settings: Homo sapiens;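 further: growth inhibition of MC116 cells, read out with a cell viability assay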
Description: SANGER: Inhibition of human MC116 cell growth in a cell viability assay.

MHH-PREB-1 = type: functional, cell-based; settings: Homo sapiens;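 further: cell viability assay measuring inhibition of proliferation of human MHH-PREB-1 cells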
Description: SANGER: Inhibition of human MHH-PREB-1 cell growth in a cell viability assay.

ML-2 = type: functional, cell-based; settings: Homo sapiens;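 further: growth inhibition of ML-2 cells, measured with a cell viability readout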
Description: SANGER: Inhibition of human ML-2 cell growth in a cell viability assay.

MSTO-211H = type: functional, cell-based, Homo sapiens; settings: Homo sapiens, MSTO-211H
Description: SANGER: Inhibition of human MSTO-211H cell growth in a cell viability assay.

NCI-H1092 = type: functional, cell-based; settings: Homo sapiens;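 further: cell growth inhibition measured with a cell viability assay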
Description: SANGER: Inhibition of human NCI-H1092 cell growth in a cell viability assay.

NCI-H209 = type: functional, cell-based; settings: Homo sapiens;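 further: growth inhibition of human NCI-H209 cells, measured by a cell viability assay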
Description: SANGER: Inhibition of human NCI-H209 cell growth in a cell viability assay.

P30-OHK = type: functional, cell-based; settings: Homo sapiens;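 further: growth inhibition of the P30-OHK cell line, read out with a cell viability assay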
Description: SANGER: Inhibition of human P30-OHK cell growth in a cell viability assay.

RPMI-8226 = type: functional, cell-based; settings: Homo sapiens
Description: SANGER: Inhibition of human RPMI-8226 cell growth in a cell viability assay.

SF-539 = type: functional, cell-based, Homo sapiens; settings: Homo sapiens, SF-539;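 further: Read-out is a cell viability assay, with IC50 reflecting inhibition of cell growth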
Description: SANGER: Inhibition of human SF539 cell growth in a cell viability assay.

SHP77 = type: functional, cell-based, Homo sapiens, SHP-77; settings: Homo sapiens, SHP77;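 further: growth inhibition of human SHP-77 cells measured by a cell viability assay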
Description: SANGER: Inhibition of human SHP-77 cell growth in a cell viability assay.

SJSA-1 = type: functional, cell-based, Homo sapiens; settings: Homo sapiens, SJSA-1;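 further: growth inhibition of human SJSA-1 cells, read out through a cell viability measurement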
Description: SANGER: Inhibition of human SJSA-1 cell growth in a cell viability assay.

SK-NEP-1 = type: functional, cell-based; settings: Homo sapiens;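 further: growth inhibition of human SK-NEP-1 cells, read out by a cell viability assay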
Description: SANGER: Inhibition of human SK-NEP-1 cell growth in a cell viability assay.

SK-UT-1 = type: functional, cell-based, Homo sapiens; settings: Homo sapiens, SK-UT-1;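 further: growth inhibition of SK-UT-1 cells, measured by a cell viability assay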
Description: SANGER: Inhibition of human SK-UT-1 cell growth in a cell viability assay.

A253 cell line = type: functional, cell-based, Homo sapiens; settings: Homo sapiens, A253;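 further: growth inhibition of A253 cells, read out with a cell viability assay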
Description: SANGER: Inhibition of human A253 cell growth in a cell viability assay.

A4-Fuk = type: functional, cell-based; settings: Homo sapiens;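 further: growth inhibition of A4-Fuk cells, read out by a cell viability assay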
Description: SANGER: Inhibition of human A4-Fuk cell growth in a cell viability assay.

A498 = type: functional, cell-based, Homo sapiens; settings: Homo sapiens, A498;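 further: growth inhibition of human A498 cells, read out with a cell viability assay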
Description: SANGER: Inhibition of human A498 cell growth in a cell viability assay.

ATN-1 = type: functional, cell-based; settings: Homo sapiens;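 further: growth inhibition of human ATN-1 cells, read out with a cell viability assay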
Description: SANGER: Inhibition of human ATN-1 cell growth in a cell viability assay.

BB49-HNC = type: functional, cell-based, Homo sapiens; settings: Homo sapiens, BB49-HNC;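 further: cell viability assay read-out, reported as inhibition of BB49-HNC cell growth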
Description: SANGER: Inhibition of human BB49-HNC cell growth in a cell viability assay.

Becker = type: functional, cell-based, Homo sapiens; settings: Homo sapiens, Becker;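 further: growth inhibition of Becker cells, read out with a cell viability assay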
Description: SANGER: Inhibition of human Becker cell growth in a cell viability assay.

TGW = type: functional, cell-based; settings: Homo sapiens;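 further: growth inhibition of human TGW cells, read out with a cell viability assay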
Description: SANGER: Inhibition of human TGW cell growth in a cell viability assay.

SCC-15 = type: functional, cell-based, Homo sapiens; settings: Homo sapiens, SCC-15;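 further: growth inhibition of SCC-15 cells, read out with a cell viability assay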
Description: SANGER: Inhibition of human SCC-15 cell growth in a cell viability assay.

HCE-4 = type: functional, cell-based, Homo sapiens; settings: Homo sapiens, HCE-4;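 further: cell viability assay measuring inhibition of growth in the human HCE-4 cell line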
Description: SANGER: Inhibition of human HCE-4 cell growth in a cell viability assay.

Row | SMILES | IC50 (D-336MG) [µM] | IC50 (DEL) [µM] | IC50 (EW-24) [µM] | IC50 (EW-3) [µM] | IC50 (GR-ST) [nM] | IC50 (HC-1) [µM] | IC50 (HL-60) [µM] | IC50 (IST-SL1) [µM] | IC50 (JVM-3) [µM] | IC50 (LB2241-RCC) [µM] | IC50 (LB373-MEL-D) [µM] | IC50 (LB831-BLC) [µM] | IC50 (LS-513) [µM] | IC50 (MC116) [µM] | IC50 (MHH-PREB-1) [µM] | IC50 (ML-2) [µM] | IC50 (MSTO-211H) [µM] | IC50 (NCI-H1092) [µM] | IC50 (NCI-H209) [µM] | IC50 (P30-OHK) [µM] | also measured
1 | C=C1C(=O)O[C@@H]2C3O[C@]3(C)CC/C=C(\C)CC[C@@H]12 (stereo partly specified) | > 5 | > 5 | > 5 | > 5 | > 5000 | > 5 | > 5 | > 5 | > 5 | > 5 | > 5 | > 5 | > 5 | > 5 | > 5 | > 5 | > 5 | > 5 | > 5 | > 5 | IC50 (RPMI-8226): > 5 µM; IC50 (SF-539): 2470 nM; IC50 (SHP77): > 5 µM; IC50 (SJSA-1): > 5 µM; IC50 (SK-NEP-1): > 5000 nM; IC50 (SK-UT-1): > 5 µM; IC50 (A253 cell line): > 5 µM; IC50 (A4-Fuk): > 5 µM; IC50 (A498): > 5 µM; IC50 (ATN-1): > 5 µM; IC50 (BB49-HNC): > 5 µM; IC50 (Becker): > 5 µM; IC50 (TGW): > 5 µM
2 | CC1=C2C[C@H]3[C@@H](CC=C4C[C@@H](O)CC[C@@]43C)[C@@H]2CC[C@]12O[C@@H]1C[C@H](C)CN[C@H]1[C@H]2C [CYCLOPAMINE] | > 16 | > 16 | > 16 | > 16 | > 16000 | > 16 | > 16 | > 16 | > 16 | > 16 | > 16 | > 16 | 11.4 | > 16 | > 16 | > 16 | > 16 | > 16 | > 16 | > 16 | IC50 (RPMI-8226): > 16 µM; IC50 (SCC-15): > 16 µM; IC50 (SF-539): > 16000 nM; IC50 (SHP77): > 16 µM; IC50 (SJSA-1): > 16 µM; IC50 (SK-NEP-1): > 16000 nM; IC50 (SK-UT-1): > 16 µM; IC50 (A253 cell line): > 16 µM; IC50 (A4-Fuk): > 16 µM; IC50 (A498): > 16 µM; IC50 (ATN-1): > 16 µM; IC50 (BB49-HNC): > 16 µM; IC50 (Becker): > 16 µM; IC50 (TGW): > 16 µM
3 | CS(=O)(=O)CCNCc1ccc(-c2ccc3ncnc(Nc4ccc(OCc5cccc(F)c5)c(Cl)c4)c3c2)o1 [LAPATINIB] | > 2 | > 2 | > 2 | > 2 | > 2000 | > 2 | > 2 | > 2 | > 2 | 1.15 | > 2 | > 2 | > 2 | > 2 | > 2 | > 2 | > 2 | > 2 | > 2 | > 2 | IC50 (RPMI-8226): > 2 µM; IC50 (SCC-15): > 2 µM; IC50 (SF-539): > 2000 nM; IC50 (SHP77): > 2 µM; IC50 (SJSA-1): > 2 µM; IC50 (SK-NEP-1): > 2000 nM; IC50 (SK-UT-1): > 2 µM; IC50 (A253 cell line): 1.97 µM; IC50 (A4-Fuk): > 2 µM; IC50 (ATN-1): > 2 µM; IC50 (BB49-HNC): > 2 µM; IC50 (Becker): > 2 µM; IC50 (TGW): > 2 µM
4 | CCc1nc(N)nc(N)c1-c1ccc(Cl)cc1 [PYRIMETHAMINE] | > 20 | 3.93 | > 20 | > 20 | 709 | 5.65 | > 20 | 16.1 | > 20 | > 20 | > 20 | > 20 | > 20 | 17.9 | > 20 | 11.5 | 7.64 | > 20 | 6.06 | > 20 | IC50 (RPMI-8226): > 20 µM; IC50 (SF-539): 2550 nM; IC50 (SHP77): > 20 µM; IC50 (SJSA-1): 3.77 µM; IC50 (SK-NEP-1): 1240 nM; IC50 (SK-UT-1): > 20 µM; IC50 (A253 cell line): > 20 µM; IC50 (A4-Fuk): 15.8 µM; IC50 (A498): > 20 µM; IC50 (ATN-1): 1.78 µM; IC50 (BB49-HNC): > 20 µM; IC50 (Becker): > 20 µM; IC50 (TGW): > 20 µM
5 | O=C(/C=C/c1ccccc1)NC(NC(=S)Nc1cccc2cccnc12)C(Cl)(Cl)Cl (stereo unspecified) [SALUBRINAL] | 15.1 | > 16 | > 16 | > 16 | > 16000 | 11.2 | 13.3 | > 16 | > 16 | 4.99 | > 16 | > 16 | > 16 | 11.2 | 6.79 | 4.62 | > 16 | > 16 | > 16 | > 16 | IC50 (RPMI-8226): > 16 µM; IC50 (SCC-15): > 16 µM; IC50 (SF-539): > 16000 nM; IC50 (SHP77): > 16 µM; IC50 (SJSA-1): > 16 µM; IC50 (SK-NEP-1): > 16000 nM; IC50 (SK-UT-1): > 16 µM; IC50 (A253 cell line): > 16 µM; IC50 (A4-Fuk): 14.1 µM; IC50 (A498): > 16 µM; IC50 (ATN-1): 12 µM; IC50 (BB49-HNC): > 16 µM; IC50 (Becker): 5.79 µM; IC50 (TGW): > 16 µM
6 | CN1CCN(CCOc2cc(OC3CCOCC3)c3c(Nc4c(Cl)ccc5c4OCO5)ncnc3c2)CC1 [SARACATINIB] | 0.503 | > 2 | 0.627 | > 2 | > 2000 | > 2 | > 2 | > 2 | > 2 | > 2 | > 2 | > 2 | > 2 | > 2 | > 2 | > 2 | > 2 | > 2 | > 2 | > 2 | IC50 (HCE-4): > 2000 nM; IC50 (RPMI-8226): > 2 µM; IC50 (SCC-15): > 2 µM; IC50 (SF-539): > 2000 nM; IC50 (SHP77): > 2 µM; IC50 (SJSA-1): > 2 µM; IC50 (SK-NEP-1): > 2000 nM; IC50 (SK-UT-1): > 2 µM; IC50 (A253 cell line): > 2 µM; IC50 (A4-Fuk): > 2 µM; IC50 (A498): > 2 µM; IC50 (ATN-1): > 2 µM; IC50 (BB49-HNC): > 2 µM; IC50 (Becker): > 2 µM; IC50 (TGW): > 2 µM
7 | CO[C@H]1C[C@@H]2CC[C@@H](C)[C@@](O)(O2)C(=O)C(=O)N2CCCC[C@H]2C(=O)O[C@H]([C@H](C)C[C@@H]2CC[C@@H](O)[C@H](OC)C2)CC(=O)[C@H](C)/C=C(\C)[C@@H](O)[C@@H](OC)C(=O)[C@H](C)C[C@H](C)/C=C/C=C/C=C/1C [SIROLIMUS] | > 0.1 | 0.018 | > 0.1 | > 0.1 | 0.846 | > 0.1 | > 0.1 | > 0.1 | > 0.1 | > 0.1 | > 0.1 | > 0.1 | > 0.1 | 0.000985 | 0.0324 | > 0.1 | > 0.1 | > 0.1 | 0.0874 | > 0.1 | IC50 (HCE-4): > 100 nM; IC50 (RPMI-8226): 0.00119 µM; IC50 (SCC-15): > 0.1 µM; IC50 (SF-539): < 0.391 nM; IC50 (SHP77): > 0.1 µM; IC50 (SJSA-1): > 0.1 µM; IC50 (SK-NEP-1): 8.79 nM; IC50 (SK-UT-1): 0.0168 µM; IC50 (A253 cell line): > 0.1 µM; IC50 (A4-Fuk): 0.0131 µM; IC50 (A498): > 0.1 µM; IC50 (ATN-1): > 0.1 µM; IC50 (BB49-HNC): > 0.1 µM; IC50 (Becker): 0.0411 µM; IC50 (TGW): > 0.1 µM
8 | CNC(=O)c1cc(Oc2ccc(NC(=O)Nc3ccc(Cl)c(C(F)(F)F)c3)cc2)ccn1 [SORAFENIB] | > 4 | > 4 | > 4 | > 4 | > 4000 | > 4 | 3.06 | > 4 | > 4 | > 4 | > 4 | > 4 | > 4 | > 4 | > 4 | > 4 | > 4 | > 4 | > 4 | > 4 | IC50 (RPMI-8226): > 4 µM; IC50 (SCC-15): > 4 µM; IC50 (SF-539): > 4000 nM; IC50 (SHP77): > 4 µM; IC50 (SJSA-1): > 4 µM; IC50 (SK-NEP-1): > 4000 nM; IC50 (SK-UT-1): > 4 µM; IC50 (A253 cell line): > 4 µM; IC50 (A4-Fuk): > 4 µM; IC50 (A498): > 4 µM; IC50 (ATN-1): > 4 µM; IC50 (BB49-HNC): > 4 µM; IC50 (Becker): > 4 µM; IC50 (TGW): > 4 µM
